How the values were obtained:
[1] = test system: H838; assay: CCK-8 cell viability assay; type: cell-based, human; settings: 48 h treatment, mean ± S.E.M., wild-type Ras
Protocol: (§1) Human hepatoma (HepG2, Hep3B), human lung adenocarcinoma (A549, H838), and human myelogenous leukemia (K562) cell lines were obtained from American Type Culture Collection (Rockville, Md., USA). Human prostate cancer cell lines (LNCaP and DU145), human breast carcinoma (MCF-7), human bladder carcinoma (TSGH 8301) and human pancreas adenocarcinoma (BxPC-3) were obtained from BCRC (Bioresource Collection and Research Center, Hsinchu, Taiwan). HepG2, DU145 and MCF-7 cell lines were cultured in Minimum Essential Medium Alpha (Invitrogen/Gibco BRL, Grand Island, N.Y., USA). A549 cells were cultured in Dulbecco's modified Eagle's medium (Invitrogen/Gibco BRL). H838, TSGH 8301, BxPC-3 LNCaP and K562 cell lines were cultured in RPMI-1640 medium (Invitrogen/Gibco BRL). All cells were cultured at 37° C. in 5% CO2 in culture media supplemented with 10% fetal bovine serum (FBS) (Invitrogen/Gibco BRL) and 100 U/ml streptomycin and penicillin (Invitrogen/Gibco BRL). For treatment, cells were seeded in six-well plates at 6.25×10^5 cells/well. On the following day, the media was changed to serum-free media, and cells were serum-starved for 24 h. Compound 1 was dissolved in DMSO and diluted to the required concentration in serum-free medium. Cultures were then treated with diluted Compound 1 as indicated. After treatment, cells were washed with cold phosphate-buffered saline (PBS) and lysed using RIPA buffer containing phosphatase and protease inhibitors.
(§2) Cell Counting Kit-8 (CCK-8) allows sensitive colorimetric assays for the determination of cell viability in cell proliferation and cytotoxicity assays. The detection sensitivity of CCK-8 is higher than the other tetrazolium salts such as MTT, XTT, MTS or WST-1.
(§3) Cell viability was measured using Cell Counting Kit-8 (CCK-8, Enzo Life Sciences, Farmingdale, N.Y.). In this assay, WST-8 is reduced by dehydrogenases in cells to produce a yellow-colored product (formazan), which is soluble in culture medium. The amount of formazan generated is directly proportional to the number of living cells. After treatment, CCK-8 solution was added to each well and incubated for 4 h. The concentration of formazan was measured with a spectrophotometer at an absorbance wavelength of 450 nm. Cell viability was expressed as a percentage of the corresponding control.
(§4) To determine whether the cytotoxic effects of Compound 1 correlate with the presence of Ras mutations, cell lines derived from human lung cancer (A549 and H838), liver cancer (HepG2 and Hep3B), and leukemia (K562 and THP-1) with wild-type Ras (H838, Hep3B, and K562) or mutant Ras (A549, HepG2, and THP-1) were used. Cell viability was measured after 48 h of Compound 1 treatment.

[2] = test system: THP-1; assay: CCK-8 cell viability assay; type: cell-based; settings: Homo sapiens, 48 h treatment, mean ± S.E.M., mutant Ras
Protocol: as §2, §3, §4

[3] = test system: Hep3B; assay: CCK-8 cell viability assay; type: cell-based; settings: Homo sapiens, 48 h treatment, mean ± S.E.M., wild-type Ras
Protocol: as §1, §2, §3, §4

[4] = test system: A549; assay: CCK-8 cell viability assay; type: cell-based; settings: Homo sapiens, 48 h treatment, mean ± S.E.M., mutant Ras
Protocol: as §1, §2, §3, §4

[5] = test system: K562; assay: CCK-8 cell viability assay; type: cell-based; settings: Homo sapiens, 48 h treatment, mean ± S.E.M., wild-type Ras
Protocol: as §1, §2, §3, §4

[6] = test system: HepG2; assay: CCK-8 cell viability assay; type: cell-based; settings: Homo sapiens, 48 h treatment, mean ± S.E.M., mutant Ras
Protocol: as §1, §2, §3, §4

[7] = test system: Ras processing; assay: Immunoblot of unprocessed and processed Ras in cancer cell lines; type: cell-based, human; settings: H838 cells, competition assay, 24 h
Protocol: FIG. 2A-C show illustrative effective results of the exemplary Compound 1 inhibiting Ras processing in cancer cell lines. (2A) A549 and H838 cells were treated with different concentrations of Compound 1 and grown under serum (10% FBS) or serum-free (no FBS) conditions for 24 h. (2B) H838, (2C) HepG2 and K562 cells were treated with different concentrations of Compound 1 and grown under serum-free (no FBS) conditions for 24 h. Whole cell lysates were then immunoblotted with a Ras antibody. A duplicate membrane was probed with a GAPDH antibody. The relative expression level of unprocessed to processed Ras was quantified by densitometry. The experiments were conducted three times. […]
FIG. 3A-C show illustrative effective results of Compound 1 inhibiting the prenylation activity of farnesyltransferase in vitro and competes with FPP within cells. […] The relative expression level of unprocessed to processed Ras was quantified by densitometry. […]
Sixty micrograms of total protein lysates measured using a Bradford assay (Sigma-Aldrich, St. Louis, Mo., USA) were resolved on 12.5% SDS-polyacrylamide gels. […] Secondary antibodies were conjugated to horseradish peroxidase, which was detected using a 3,3′-diaminobenzidine substrate kit (Vector Laboratories, Burlingame, Calif.). The immunoreactive bands were quantified by densitometry using Image-Pro Plus software (Media Cybernetics, Silver Spring, Md.). […]

| SMILES | IC50 ([1]; Homo sapiens, NCI-H838, 48 h) [µM] | IC50 [3] [µM] | IC50 [4] [µM] | IC50 [6] [µM] | other results |
| --- | --- | --- | --- | --- | --- |
| COC1=C(OC)C(O)C(C/C=C(\C)CCC(=O)O)C(C)C1=O (centres unmarked) [Compound 27] | > 100 |  |  |  |  |
| COC1=C(OC)C(OC(C)=O)C(C/C=C(\C)CC/C=C(\C)CC2CC(C)C(=O)O2)C(C)C1=O (centres unmarked) [Compound 28] | > 100 |  |  |  |  |
| CC(C)=CCC/C(C)=C/CC/C(C)=C/COP(=O)(O)OP(=O)(O)O [FPP, farnesyl pyrophosphate] |  |  |  |  | concentration of FPP that neutralized the effect of Compound 1 on Ras processing [7]: ≥ 10 µM |
| COC1=C(OC)C(OC(C)=O)C(C/C=C(\C)CC/C=C(\C)CCC=C(C)C)C(C)C1=O (centres unmarked) [Compound 29] | > 100 |  |  |  |  |

The remaining compounds from weak to strong by IC50 ([1]; Homo sapiens, NCI-H838, 48 h), led by results:

| IC50 ([1]; Homo sapiens, NCI-H838, 48 h) [µM] | IC50 [3] [µM] | IC50 [4] [µM] | IC50 [6] [µM] | SMILES | other results |
| --- | --- | --- | --- | --- | --- |
| 25.6 ± 6.54 | 9.06 ± 3.03 | 22.6 ± 2.24 | 27 ± 6.06 | COC1=C(OCc2ccccc2)C(=O)C(C)C(C/C=C(\C)CC/C=C(\C)CCC=C(C)C)C1O (centres unmarked) [Compound 30] |  |
| 11.3 ± 4.17 |  |  |  | COC1=CC(O)C(C/C=C(\C)CC/C=C(\C)CCC=C(C)C)C(C)C1=O (centres unmarked) [Compound 26, 4-hydroxy-2-methoxy-6-methyl-5-((2E,6E)-3,7,11-trimethyldodeca-2,6,10-trienyl)cyclohex-2-enone] |  |
| 3.41 ± 1.43 | 7.46 ± 7.06 | 6.68 ± 0.75 | 8.98 ± 0.97 | COC1=C(OCc2ccccc2)C(O)C(C/C=C(\C)CC/C=C(\C)CCC=C(C)C)C(C)C1=O (centres unmarked) [Compound 31] |  |
| 3.32 | 3.74 | 3.24 | 6.42 | COC1=C(OC)C(O)C(C/C=C(\C)CC/C=C(\C)CCC=C(C)C)C(C)C1=O (centres unmarked) [Compound 1, 4-hydroxy-2,3-dimethoxy-6-methyl-5-(3,7,11-trimethyldodeca-2,6,10-trienyl)cyclohex-2-enone] | IC50 [2]: 2.22 µM; IC50 [1]: 2.96 ± 0.05 µM; IC50 [5]: 5.12 µM |

— patent US20150018296A1, “THERAPEUTIC METHODS AND COMPOSITIONS UTILIZING CYCLOHEXENONE COMPOUNDS” (Golden Biotechnology Corporation, priority 2013, published 2015)
